Data as given in patent publication CN102911068A, “左旋肉碱l-苹果酸盐及其制备方法与用途” (GUANGZHOU AOHAI BIO-TECHNOLOGY CO LTD, priority 2011, dated 2013).

Legend:
[1] = test system: obese model rats [肥胖模型大鼠]; assay: Weight-loss efficacy test in obese model SD rats (diet-induced obesity, with swimming exercise); format: in vivo, rat; settings: 30 days; for body fat (testicular and perirenal fat pads) / body weight increase / fat/body ratio: gavage
[2] = Critical relative humidity (CRH) from moisture absorption equilibrium curve; format: physicochemical
[3] = Angle of repose (powder poured through a funnel) / flowability; format: physicochemical
[4] = background art, cited from earlier work
[5] = background art; cited from earlier work
[6] = high dose + exercise (30x recommended human dose; Ex. 2 at maximum dissolved concentration; Ex. 1/2/3/4: 0.96/0.36/1.02/1.08 g in 2 ml water), * (P<0.05 vs model control): all
[7] = L-carnitine tartrate control + exercise, 0.13 g in 2 ml water, swimming 30 min, 5 times/week, * (P<0.05 vs model control) printed

SMILES: C[N+](C)(C)CC(O)CC(=O)O (centres unmarked) [实施例1药, 左旋肉碱L-苹果酸盐]
- body fat (testicular and perirenal fat pads) [1, 6]: 5.9 ± 4.5 g
- body weight increase [1, 6]: 15.2 ± 7.9 g
- fat/body ratio [1, 6]: 0.02±0.02
- body weight increase ([1]; low dose + exercise (5x recommended human dose; Ex. 1/2/3/4: 0.16/0.18/0.17/0.18 g in 2 ml water), * (P<0.05 vs model control): Ex. 1, 3, 4): 19.3 ± 10.2 g
- body fat (testicular and perirenal fat pads) ([1]; low dose + exercise (5x recommended human dose; Ex. 1/2/3/4: 0.16/0.18/0.17/0.18 g in 2 ml water), * (P<0.05 vs model control): Ex. 2, 3, 4): 7.3 ± 4.1 g
- fat/body ratio ([1]; low dose + exercise (5x recommended human dose; Ex. 1/2/3/4: 0.16/0.18/0.17/0.18 g in 2 ml water), no * printed): 0.03±0.01
- difference between results of Example 1, 2, 3 and 4 drugs ([1]; words, obese rats): 无明显差异
- critical relative humidity CRH ([2]; 25 °C, saturated salt solutions in desiccator): 87%
- moisture absorption (hygroscopicity) ([2]; words, judged from CRH at 25 °C): 不易吸潮
- angle of repose ([3]; solid powder flowing from funnel): 30 °
- flowability ([3]; words, judged from angle of repose): 流动性较好

SMILES: C[N+](C)(C)CC(O)CC(=O)O (centres unmarked) [左旋肉碱酒石酸盐, reference compound]
- body fat (testicular and perirenal fat pads) ([1]; L-carnitine tartrate control + exercise, 0.13 g in 2 ml water, swimming 30 min, 5 times/week): 8.2 ± 4.3 g
- body weight increase [1, 7]: 21.3 ± 14.2 g
- fat/body ratio [1, 7]: 0.03±0.01
- hygroscopicity ([4]; words): 仍有较大的吸湿性
- relative humidity at which deliquescence occurs [4]: > 60%

SMILES: CC(=O)[O-].CC(=O)[O-].[Ca+2] [醋酸钙]
- LD50 [5]: < 5000 mg/kg
